Source: patent US7456216B2, “Methods for the preparation and formulation of l-carnitine valproate salts” (BioLink Life Sciences, Inc., priority 2007, dated 2008)

Experiments:
[1] = Storage in ambient atmosphere, gross weight monitored over 6 days (hygroscopicity); type: physicochemical; details: for Conclusion & Observations (hygroscopicity): 6 days in ambient atmosphere; for Net weight, final / Change of net weight, final vs initial: after 6 days in ambient atmosphere; for Net weight, initial: weighed portion before exposure to ambient atmosphere
Method: The effects of storage of the L-carnitine valproate salts of Examples 1 and 2 in ambient atmospheres were monitored for 6 days. For comparison, L-carnitine (Sigma Aldrich Chemical Co.), sodium valproate (Sigma Aldrich Chemical Co.), and divalproex sodium were also monitored in the same manner. The experiment was performed by weighing portions of each compound into a tared glass container and periodically monitoring the gross weight of the compound+container over a 6 day period.

deacetylase = details: dose between 20 and 40 mg/kg; patients with cervical cancer; cited from earlier work
[2] = Solubility in water or aqueous solutions; type: physicochemical
[3] = Storage in a closed and sealed container (stability, odor); type: physicochemical; details: for Odor detected during storage: trimethylamine odor indicates degradation
Text: L-Carnitine magnesium salts of the present invention are stable when stored in a closed and sealed container. […] Both L-carnitine calcium valproate and L-carnitine magnesium valproate are converted to the corresponding hydrates by exposure to water vapor in the atmosphere. Each hydrate has a characteristic melting point.

[4] = cited from earlier work
[5] = conventional L-carnitine; cited from earlier work

Compound	Conclusion & Observations (hygroscopicity) [1]	Net weight, final [1] [mg]	Net weight, initial [1] [mg]	also measured
CCCC(CCC)C(=O)O [Divalproex sodium, reference compound]	Mass of the material did not change. Material is not hygroscopic.	100	100	
CCCC(CCC)C(=O)[O-].[Na+] [Sodium valproate, reference compound]	very hygroscopic.			
magnesium 2-propylvalerate [magnesium valproate]				Deacetylase activity in tumor tissues (deacetylase): inhibits deacetylase activity and hyperacetylates histones in tumor tissues
L-carnitine magnesium valproate	Material absorbed water and was converted to a hydrate, which is further	163	142	Change of net weight, final vs initial [1]: (+15%); Solubility in water or aqueous solutions [2]: readily dissolved in water or aqueous solutions; Stability during storage [3]: stable; Odor detected during storage [3]: a slight odor of trimethylamine is detected
L-carnitine calcium valproate	Appearance and mobility of the material did not change. Material absorbed water	202	194	Change of net weight, final vs initial [1]: (+5%); Stability during storage [3]: stable; Odor detected during storage [3]: no odor is detected
CCCC(CCC)C(=O)O [Valproic acid, 2-propylpentanoic acid]				Solubility in water [4]: very slightly soluble in water
C[N+](C)(C)C[C@H](O)CC(=O)[O-] [L-Carnitine, L-(−)-Carnitine]	Material is hygroscopic.	>227	208	Bioavailability of L-carnitine [5]: 15-20 % of the administered dose
